Experimental findings from patent EP0523356B1, “Burst-test” (Orpegen Medizinisch-Molekularbiologische …, priority 1991, dated 1993) are described below.

The test system of the assay is Granulozyten. Nature of the assay: Oxidative burst test in heparinised whole blood (dihydrorhodamine 123, flow cytometry). The assay is classed as cell-based, menschlichen. To be noted: Erwartungswerte, 10 + 10 Minuten Inkubation at 37°C, heparinised whole blood 100 µl. How it is done:
Frisch entnommenes, heparinisiertes Vollblut wird gemixt (Vortex) und auf dem Boden eines 5 ml-Röhrchens aliquotiert, wobei pro Ansatz 100 µl verwendet werden. Durch EDTA oder Citrat stabilisiertes Vollblut ist für das Verfahren nicht sonderlich geeignet. Die Blutproben werden vor der Zugabe der Bakterien ca. 15 Minuten im Eiswasserbad inkubiert, um auf 0°C abgekühlt zu sein.
Die vorgekühlten E.coli-Bakterien (1 x 10^9 pro ml) werden gut gemixt (Vortex) und 20 µl pro Ansatz zum Vollblut pipettiert ("high control", Röhrchen 1). Gegebenenfalls können 20 µl N-Formyl-Met-Leu-Phe-Gebrauchslösung als "low control" in ein weiteres Röhrchen (Röhrchen 2) gegeben werden (Endkonzentration 10^-6 mol/l). 20 µl Waschlösung (phosphatgepufferte Salzlösung ohne Calcium^2+ und Magnesium^2+ mit 0,02 % EDTA) werden als Negativkontrolle in ein drittes Röhrchen (Röhrchen 3) gegeben.
Alle Röhrchen werden nochmals gemixt (Vortex) und 10 Minuten lang bei 37°C im Wasserbad unter starkem Schütteln inkubiert (bei einer kinetischen Messung können auch längere Inkubationszeiten erforderlich sein).
Nach 10 Minuten erfolgt die Zugabe von 20 µl frisch angesetzter Substratlösung und Mischen (Vortex) (Endkonzentration 0,2 µg Dihydrorhodamin 123 auf 100 µl Körperflüssigkeit). […]
For orientation: A flow cytometer gives signals particle by particle.

For `CSCC[C@H](NC=O)C(=O)N[C@@H](CC(C)C)C(=O)N[C@@H](Cc1ccccc1)C(=O)O` [N-Formyl-Met-Leu-Phe], the “mittlere Fluoreszenzintensität (4 Dekaden, 1024 Kanäle)” value (green fluorescence (FL1) of the oxidising cells, stimulant: 20 µl E.coli 1 x 10^9 pro ml or N-Formyl-Met-Leu-Phe Endkonzentration 10^-6 mol/l) was 10-100. Besides, the “% oxidierende Granulozyten” value (stimulant: 20 µl E.coli 1 x 10^9 pro ml or N-Formyl-Met-Leu-Phe Endkonzentration 10^-6 mol/l6 mol/l) was 1-5%.
